The source of these data is paper PMC11959706, “Allatostatin-C signaling in the crab Carcinus maenas is implicated in the ecdysis program” (The Journal of Experimental Biology, 2025).

Bridge positions count the residues as written; N and C are the ends. Ends that are not written are not given here.

The subject of assay [1] is antiserum raised against Manduca sexta AST-C. The experiment in a line: AST-C radioimmunoassay standard curves and cross-reactivity. The assay is classed as binding. Conditions: competitive RIA with iodinated AST-C tracer, antiserum 1:1000; typical standard curves. On the procedure: AST-C (300 pmol, dissolved in 10 µl 200 mmol l^−1 phosphate buffer at pH 7.5) was radio iodinated with 9.25–12.5 MBq NaI^125 in 10^−5 mol l^−1 NaOH (PerkinElmer, Boston MA), using Chloramine-T ([Bolton, 1989]). Following termination of the reaction (4.3 µg cysteine in 100 µl phosphate buffer) and quenching (500 µl of 0.2 mg ml^−1 KI in phosphate buffer), radiolabeled peptide was separated from unincorporated iodide on Sep-Pak C18 cartridges (Waters, Milford, MA, USA), by firstly washing with 10 ml of 200 mmol l^−1 phosphate buffer then eluting the peptide with 40% isopropanol in 500 µl fractions. Small quantities (2 µl) were then taken for counting. Specific activities of 8–16 TBq mmol^−1 were routinely obtained.
RIA conditions were as follows: iodinated AST-C 35,000 dpm per 50 µl PBS containing 0.05% BSA and 0.02% sodium azide. An antiserum raised against Manduca sexta AST-C (a generous gift from Dr N. Audsley, FERA, York) was used at 1:1000 in PBS at 50 µl per tube. Standard peptides 2–2000 fmol per 50 µl and unknowns were assayed in duplicate. Tubes were first incubated for 6 h at room temperature, without tracer, which was then added, followed by 4°C incubation overnight. […]

In a further assay the test system is YOs. Further details: method as in Liu et al., 2021. Conditions: 10^−6 M; S. paramamosain; EIA measuring 20-hydroxyecdysone; ref Liu et al., 2021; cited from earlier work.
Another assay deals with AST-C receptor. Conditions: S. paramamosain AST-C receptor, CRE-Luc reporter, HEK293; ref Liu et al., 2021; cited from earlier work. The source says: For decapod crustaceans, the only other AST-C receptors that have been functionally de-orphaned are those from Cancer borealis, using EGFP fused to the C-terminus of the AST-C receptor and expression in Spodoptera frugiperda SF9 cells ([Dickinson et al., 2019]), and from H. americanus, using chimeric EGFP constructs in Tricoplusia ni cells.

The subject of another assay is vitellogenesis. The note with it: S. paramamosain; ref Liu et al., 2019; cited from earlier work. The source says:
It is likely that vitellogenesis takes place during inter-molt in this species, as it does in C. maenas ([Styrishave et al., 2008]), a closely related portunid crab. Since AST-C and likely AST-CC are only ephemerally released during the completion of ecdysis in the latter species, involvement of AST-C in inhibition of vitellogenesis seems entirely improbable, and it is extremely unlikely that in vivo injection of AST-C, as reported by [Liu et al. (2019)], has any biological relevance i ...

In the case of “GNGDGRLYWRCYFNAVSCF (disulfide 11-18 (inferred)) [AST-CC, C. maenas AST-C family neuropeptide; synthetic (GenScript)]”, the “ED50 in AST-C RIA standard curve” value in assay [1] was determined as 8000 fmol per tube.

Regarding “pQIRYHQCYFNPISCF (disulfide) [AST-C, allatostatin-C, C. maenas AST-C family neuropeptide with C-terminal PISCF motif; synthetic (GenScript)]”, the “Effect on ecdysteroid synthesis by YOs in vitro” value in the assay on YOs is recorded as “slightly inhibit”. Besides, the “ED50, receptor activation” value with AST-C receptor was approximately 6 nM. For the same substance, the “Effect of in vivo injection on vitellogenesis” value in the assay with vitellogenesis is “inhibits vitellogenesis”. In addition, in assay [1], the “ED50 in AST-C RIA standard curve” value is listed as 20 fmol per tube.
